Values quoted from earlier work in US20100048679A1, “POLYNUCLEOTIDE THERAPY” (Bayhill Therapeutics, Inc., priority 2006, published 2010).
Like-named read-outs stand apart in the source and are kept apart here.

System: patients

**Q.** With O=C1c2c(O)ccc(O)c2C(=O)c2c(NCCNCCO)ccc(NCCNCCO)c21 [mitoxantrone] as the molecule, how does the Significant side effects (MS patients, literature) read?
**A.** myelosuppression with increased risk for infections

**Q.** Which Significant side effects (in vivo) does the source give for glatiramer acetate here?
**A.** allergic reactions

**Q.** Which Significant side effects (MS patients, literature) does the source give for interferon β here?
**A.** flu-like symptoms

**Q.** Which Significant side effects (MS patients, literature) does the source give for natalizumab [Tysabri] here?
**A.** decreases lymphocyte trafficking
